Values joined by “and” are separate entries in the source; they are usually repeats but may differ in a detail not shown here. Identical values can stand only once. “Also recorded” adds a separate entry of the source. Like-named read-outs stand apart in the source and are kept apart here.
Test system: M. tuberculosis, drug resistant strain Vertulla
Assay type: cell-based, Mycobacterium tuberculosis (in human macrophages)
Settings: for CFU: duplicate values

Compound: NCC[C@H](O)C(=O)N[C@@H]1C[C@H](N)[C@@H](O[C@H]2O[C@H](CN)[C@@H](O)[C@H](O)[C@H]2O)[C@H](O)[C@H]1O[C@H]1O[C@H](CO)[C@@H](O)[C@H](N)[C@H]1O [amikacin]
- CFU (4 μg/ml, day 4): 9.3 1 × 10^3 cfu per monolayer and 8.0 1 × 10^3 cfu per monolayer
- CFU (8 μg/ml, day 4): 5 1 × 10^3 cfu per monolayer and 4 1 × 10^3 cfu per monolayer
- CFU (8 μg/ml, day 7): 4.5 1 × 10^3 cfu per monolayer and 6.2 1 × 10^3 cfu per monolayer
- CFU (16 μg/ml, day 4): 5 1 × 10^3 cfu per monolayer and 5.4 1 × 10^3 cfu per monolayer
- CFU (16 μg/ml, day 7): 3.7 1 × 10^3 cfu per monolayer and 4.1 1 × 10^3 cfu per monolayer
- inhibition / killing of drug resistant bacteria (in words) (4, 8 and 16 μg/ml, killing = fewer cfu than previous time point, listed as free amikacin): at the most, inhibition; also recorded: only inhibit the growth of the infection without killing
